Laboratory results as given in ChEMBL document CHEMBL1138629, “Synthesis of 61-bis(1-adamantylcarbamoyl)-1,2-methano[60]fullerene and its antagonistic effect on haloperidol-induced catalepsy in mice” (Bioorg Med Chem Lett, 2004).

Biological target: T1, Fatty-acid amide hydrolase 1 (Mus musculus, UniProt O08914)
T1 sequence (O08914 whole entry): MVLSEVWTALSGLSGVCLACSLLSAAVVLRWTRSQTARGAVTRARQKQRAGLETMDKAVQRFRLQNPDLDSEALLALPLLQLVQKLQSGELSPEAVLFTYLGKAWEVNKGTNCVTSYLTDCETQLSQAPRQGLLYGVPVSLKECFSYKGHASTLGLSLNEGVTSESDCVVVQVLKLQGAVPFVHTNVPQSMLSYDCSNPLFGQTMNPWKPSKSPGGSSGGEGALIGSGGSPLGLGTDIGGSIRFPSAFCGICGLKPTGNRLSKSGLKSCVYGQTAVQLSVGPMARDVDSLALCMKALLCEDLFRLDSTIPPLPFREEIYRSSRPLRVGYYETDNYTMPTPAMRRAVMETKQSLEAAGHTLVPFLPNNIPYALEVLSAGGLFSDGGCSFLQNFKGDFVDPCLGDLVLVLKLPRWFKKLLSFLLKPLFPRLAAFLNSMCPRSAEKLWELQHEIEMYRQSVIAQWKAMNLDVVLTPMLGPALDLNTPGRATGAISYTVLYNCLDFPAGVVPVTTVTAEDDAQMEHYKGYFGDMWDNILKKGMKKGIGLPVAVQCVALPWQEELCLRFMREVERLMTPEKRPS
Test: Inhibitory concentration against mouse fatty acid amide hydrolase
Format: functional

NC(=O)CCC/C=C\C/C=C\C/C=C\C/C=C\CCCCCC12CC3CC(CC(C3)C1)C2
IC50: 37.4 µM
